Results on four compounds are retold here after article PMC6478789, “A chemical toolbox for the study of bromodomains and epigenetic signaling” (Nature Communications, 2019).

The Kd is the equilibrium constant for the complex coming apart.

The test system of one assay is MDA-MB-436 cells. Nature of the assay: Immunoblot of H3 and H4 acetylation. It is filed as cell-based, human. To be noted: BAY-876 treatment. The method, then: Total cell lysates were resolved in 4−12% Bis-Tris protein gels (Invitrogen) with MOPS (3-(N-morpholino)propanesulfonic acid) buffer (Invitrogen) and transferred for 1.5 h (80 V) onto polyvinylidene fluoride membrane (Millipore) in Tris-glycine transfer buffer containing 20% MeOH and 0.05% sodium dodecyl sulfate. Blots were blocked for 1 h in blocking buffer (5% milk in 0.1% Tween-20 PBS) and incubated with primary antibodies: anti-ac-H3 (1:2000, ab47915); anti-ac-H4 (1:2000; ab177790); anti-H3 (1:2000; ab1791); anti-H4 (1:2000; ab10158); anti-H3K14ac (1:4000; ab52946); anit-BRPF1 (1:1000; Thermo Fisher); anti-BRPF2 (1:2000; ab71877) in blocking buffer overnight at 4 °C. After five washes with 0.1% Tween-20 PBS the blots were incubated with goat-anti-rabbit (IR800 conjugated, LiCor no. 926-32211) and donkey anti-mouse (IR 680, LiCor no. 926-68072) antibodies (1:5000) in Odyssey blocking buffer (LiCor) for 1 h at room temperature and washed five times with 0.1% Tween-20 PBS. The signal was read on an Odyssey scanner (LiCor) at 800 and 700 nm.
On the technique in general: In western blotting, separated proteins are transferred to a membrane and probed.

A further assay addresses T1, ATAD2B (Homo sapiens, UniProt Q9ULI0).
T1 sequence (Q9ULI0 951-1066 limits assumed): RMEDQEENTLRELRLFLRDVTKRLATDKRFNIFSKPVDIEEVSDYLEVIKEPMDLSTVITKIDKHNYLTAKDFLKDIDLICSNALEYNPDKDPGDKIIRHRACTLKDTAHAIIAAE
Further details: purchased; method as in ref 18 (suppl.). The note with it: ITC; ref 18 (suppl.); cited from earlier work. A general note: ITC needs no label: the signal is the heat of the interaction.

In a further assay the target is p300. To be noted: ITC data; ref 9 (suppl.); cited from earlier work.
The next assay deals with TNBC cell lines. The experiment in a line: OF-1 IC50 in glucose deprivation media. It is filed as cell-based, human. To be noted: 7 days. From the text: Graph indicates mean, error bars denote s.d. from eight wells (from two independent assays) and p-value was computed using the Benjamini-Hochberg t test; ***p < 0.001. d Immunoblot validation of BRPF knockdown in MDA-MB-436 cells. e Quantitative real-time PCR (RT-qPCR) validation of BRPF knockdown in MDA-MB-436 cells. […] Raw data images are available in Supplementary Fig. 4 […]
Wood & Pier Lorenzo Puri Scientific Reports volume 7, Article number: 6153 (2017)) as well as the role of the BET proteins in muscle differentiation (Roberts et al, Scientific reports 2017: BRD3 and BRD4 BET Bromodomain Proteins Differentially Regulate Skeletal Myogenesis). […]
Additional minor comment: The writing in the figure is often not readable (very low resolution) […]
with 0.1% DMSO (vol/vol). Cell viability at 7 days was evaluated using Incucyte ZOOM live cell imaging device (Essen Bioscence) and analyzed with Incucyte ZOOM (2016A) software based […]
In this study, Wu and colleagues report on characterization and possible applications of a set of 25 inhibitors for bromodomain. The authors evaluated selectivities of these inhibitors by measuring Kds for the interactions with a large number of bromodomains using ITC and BROMOscan. […]

Molecules are shown by their SMILES.

On to `Cc1c(NC(=O)c2cc(C(N)=O)nc3cc(F)ccc23)c(C(F)(F)F)nn1Cc1ccc(C#N)cc1` [BAY-876], for which the “global levels of acetylated histone H3 (ac-H3)” value with MDA-MB-436 cells was “reduction”. For the compound `CO[C@H]1CNC[C@@H](OCC2CCC(F)(F)CC2)[C@@H]1Nc1ncc(-c2cncc(C)c2)c2cc(C)c(=O)[nH]c12` [GSK8814], at ATAD2B, the Kd is 10 nM.

For `CCC(=O)N1CCOc2c(cc(-c3ccc(OC)c(OC)c3)cc2OCC2CCCN(C)C2)C1` (stereo not shown) [I-CBP112], the Kd on p300 is 625 nM. For `COc1cc2c(cc1NS(=O)(=O)c1ccc(Br)cc1C)n(C)c(=O)n2C` [OF-1], the OF-1 sensitivity result in the assay on TNBC cell lines is recorded as “increase of OF-1 sensitivity”.
